Measurements reported in publication PMC8188212, “Multi‐Arm PEG/Peptidomimetic Conjugate Inhibitors of DR6/APP Interaction Block Hematogenous Tumor Cell Extravasation” (Advanced Science, 2021).
“Also recorded” adds a separate entry of the source. Square brackets hold non-standard residues; d marks the D form. Side chains are listed from the residue outwards. Ends that are not written are not given here. maleimide = maleimide: 4-arm PEG5k maleimide reacting with the C-terminal Cys thiol

Tested on: HUVECs
Assay: Co-culture of TCs and HUVECs, TC-induced HUVECs necroptosis
Assay type: cell-based, human
Conditions: co-culture with GFP-B16F10, GFP-SGC-996, GFP-LLC1 for 24 h; peptides 1 × 10^–6 M; Hoechst 33342/EthD-III staining; n = 3
Experimental: For co‐culture experiment, HUVECs (1 × 10^5) were cultured for 24 h in six‐well plates and 5 × 10^4 GFP‐expressing TCs (GFP‐B16F10, GFP‐SGC‐996, and GFP‐LLC1) were added alone or in the presence of the indicated substances onto the HUVECs monolayer and cultured for 24 h: peptides (1 × 10^–6 M), Nec‐1 (30 × 10^–6 M), and zVAD (100 × 10^–6 M). Then, cells were stained with Hoechst 33342 and EthD‐III, and observed by fluorescence microscope. Cell number was determined by counting Hoechst‐33342‐positive cells, and cell death was determined by counting EthD‐III‐positive nuclei.^[ ^9 ^]

PEG-tAHP-DRI: tetra-(D-retro-inverso isomer of AHP-12) substitued 4-arm PEG5k ([dP][dT][dT][dA][dD][dI][dT]C([maleimide-4‑arm PEG5k]); also: four peptides on one 4-arm PEG5k)
inhibition of TCs-induced HUVECs necroptosis: strongest potent inhibitory effect on HUVECs necroptosis; also recorded: much less amount of necroptotic HUVECs
